Columns and labels:
[1] = tested on: Pseudomonas aeruginosa ATCC 27853; test: MBEC assay, biofilm inhibition (prevention of biofilm formation), MBEC bioFILM PA panel; format: cell-based; set-up: MBEC-Biofilm Inhibition, Without compound 9 / MBEC-Biofilm Inhibition, Without compound 6 / MBEC-Biofilm Inhibition, Without compound 2 / MBEC-Biofilm Inhibition, Without compound 7 / MBEC-Biofilm Inhibition, With 0.01% compound 7 in 5% EtOH/PBS / MBEC-Biofilm Inhibition, without salt of compound 2 / MBEC-Biofilm Inhibition, with 0.1% salt of compound 2 / MBEC-Biofilm Inhibition, without salt of compound 6: unit not given here; details: for MBEC-Biofilm Inhibition, without salt of compound 2 / MBEC-Biofilm Inhibition, with 0.1% salt of compound 2: Table 9; for MBEC-Biofilm Inhibition, without salt of compound 2 / MBEC-Biofilm Inhibition, without salt of compound 6: antibiotic or antibiotic combination alone; for MBEC-Biofilm Inhibition, without salt of compound 2 / MBEC-Biofilm Inhibition, with 0.1% salt of compound 2 / MBEC-Biofilm Inhibition, without salt of compound 6 / MBEC-Biofilm Inhibition, with 0.1% salt of compound 6: value per component; for MBEC-Biofilm Inhibition, without salt of compound 2: separated by /; for MBEC-Biofilm Inhibition, with 0.1% salt of compound 2: antibiotic or combination plus 0.1% salt of compound 2; for MBEC-Biofilm Inhibition, without salt of compound 6 / MBEC-Biofilm Inhibition, with 0.1% salt of compound 6: Table 10; for MBEC-Biofilm Inhibition, with 0.1% salt of compound 6: antibiotic or combination plus 0.1% salt of compound 6; for MBEC-Biofilm Inhibition, Without compound 1 / MBEC-Biofilm Inhibition, Without compound 2 / MBEC-Biofilm Inhibition, Without compound 3 / MBEC-Biofilm Inhibition, Without compound 6 / MBEC-Biofilm Inhibition, Without compound 7 / MBEC-Biofilm Inhibition, Without compound 9: antibiotic alone
[2] = tested on: Pseudomonas aeruginosa ATCC 27853; test: MBEC assay, biofilm elimination, MBEC bioFILM PA panel; format: cell-based; set-up: MBEC-Biofilm Elimination, Without compound 2 / MBEC-Biofilm Elimination, With 0.01% compound 2 in 5% EtOH/PBS / MBEC-Biofilm Elimination, Without compound 7 / MBEC-Biofilm Elimination, With 0.01% compound 7 in 5% EtOH/PBS / MBEC-Biofilm Elimination, Without compound 1 / MBEC-Biofilm Elimination, With 0.01% compound 1 in 5% EtOH/PBS / MBEC-Biofilm Elimination, without salt of compound 2 / MBEC-Biofilm Elimination, with 0.1% salt of compound 2: unit not given here; details: for MBEC-Biofilm Elimination, without salt of compound 2 / MBEC-Biofilm Elimination, with 0.1% salt of compound 2: Table 9; for MBEC-Biofilm Elimination, without salt of compound 2 / MBEC-Biofilm Elimination, without salt of compound 6: antibiotic or antibiotic combination alone; for MBEC-Biofilm Elimination, without salt of compound 2 / MBEC-Biofilm Elimination, with 0.1% salt of compound 2 / MBEC-Biofilm Elimination, without salt of compound 6 / MBEC-Biofilm Elimination, with 0.1% salt of compound 6: value per component; for MBEC-Biofilm Elimination, with 0.1% salt of compound 2: antibiotic or combination plus 0.1% salt of compound 2; for MBEC-Biofilm Elimination, without salt of compound 6 / MBEC-Biofilm Elimination, with 0.1% salt of compound 6: Table 10; for MBEC-Biofilm Elimination, with 0.1% salt of compound 6: antibiotic or combination plus 0.1% salt of compound 6; for MBEC-Biofilm Elimination, Without compound 1 / MBEC-Biofilm Elimination, Without compound 2 / MBEC-Biofilm Elimination, Without compound 3 / MBEC-Biofilm Elimination, Without compound 6 / MBEC-Biofilm Elimination, Without compound 7 / MBEC-Biofilm Elimination, Without compound 9: antibiotic alone
[3] = reduction of antibiotic or combination required to prevent biofilm formation
[4] = with 0.01% compound 1 in 5% EtOH/PBS
[5] = with 0.01% compound 2 in 5% EtOH/PBS

| Compound | MBEC-Biofilm Inhibition, without salt of compound 2 [1] | MBEC-Biofilm Inhibition, with 0.1% salt of compound 2 [1] | MBEC-Biofilm Inhibition, without salt of compound 6 [1] | MBEC-Biofilm Inhibition, with 0.1% salt of compound 6 [1] | MBEC-Biofilm Inhibition, Without compound 1 [1] | MBEC-Biofilm Inhibition, Without compound 2 [1] | MBEC-Biofilm Inhibition, Without compound 3 [1] | MBEC-Biofilm Inhibition, Without compound 6 [1] | MBEC-Biofilm Inhibition, Without compound 7 [1] | MBEC-Biofilm Inhibition, Without compound 9 [1] | MBEC-Biofilm Inhibition, With 0.01% compound 1 in 5% EtOH/PBS [1, 4] | MBEC-Biofilm Inhibition, With 0.01% compound 2 in 5% EtOH/PBS [1, 5] | MBEC-Biofilm Inhibition, With 0.01% compound 7 in 5% EtOH/PBS [1] | MBEC-Biofilm Inhibition, With 0.05% compound 3 in 5% EtOH/PBS [1] | MBEC-Biofilm Inhibition, With 0.05% compound 6 in 5% EtOH/PBS [1] | MBEC-Biofilm Elimination, without salt of compound 2 [2] | MBEC-Biofilm Elimination, with 0.1% salt of compound 2 [2] | MBEC-Biofilm Elimination, without salt of compound 6 [2] | MBEC-Biofilm Elimination, with 0.1% salt of compound 6 [2] | MBEC-Biofilm Elimination, Without compound 1 [2] | further results |
| --- | --- | --- | --- | --- | --- | --- | --- | --- | --- | --- | --- | --- | --- | --- | --- | --- | --- | --- | --- | --- | --- |
| O=C(O)c1cn(C2CC2)c2cc(N3CCNCC3)c(F)cc2c1=O [CP, ciprofloxacin] | >0.5 | >0.5 | >0.5 | >0.5 | >0.5 | >0.5 | >0.5 | >0.5 | >0.5 | 0.5 | 0.5 | 0.5 | >0.5 | >0.5 | >0.5 | >0.5 | 0.5 | >0.5 | >0.5 | >0.5 | MBEC ([1]; antibiotic or combination alone, concentrations in order of the combination): >0.5 µg/mL; MBEC, μg/mL +Compound 1 ([1]; antibiotic plus Compound 1): 0.5 µg/mL; MBEC, μg/mL +Compound 2 ([1]; antibiotic plus Compound 2): >0.5 µg/mL; MBEC, μg/mL +Compound 7 ([1]; antibiotic plus Compound 7): 0.5 µg/mL; (% reduction) +Compound 1 [1, 3]: > 50%; (% reduction) +Compound 7 [1, 3]: > 50%; value in parentheses after MBEC-Biofilm Inhibition with 0.01% compound 1 (% reduction as in Table 2) [1, 4]: ≥ 50; value in parentheses after MBEC-Biofilm Inhibition with 0.01% compound 2 (% reduction as in Table 2) [1, 5]: ≥ 50; MBEC-Biofilm Elimination, Without compound 2 [2]: >0.5; MBEC-Biofilm Elimination, Without compound 3 [2]: >0.5; MBEC-Biofilm Elimination, Without compound 6 [2]: >0.5; MBEC-Biofilm Elimination, Without compound 7 [2]: >0.5; MBEC-Biofilm Elimination, Without compound 9 [2]: >0.5; MBEC-Biofilm Elimination, With 0.01% compound 1 in 5% EtOH/PBS [2]: >0.5; MBEC-Biofilm Elimination, With 0.01% compound 2 in 5% EtOH/PBS [2]: >0.5; MBEC-Biofilm Elimination, With 0.01% compound 7 in 5% EtOH/PBS [2]: >0.5; MBEC-Biofilm Elimination, With 0.05% compound 3 in 5% EtOH/PBS [2]: >0.5; MBEC-Biofilm Elimination, With 0.05% compound 6 in 5% EtOH/PBS [2]: >0.5 |
| CO/N=C(\C(=O)N[C@@H]1C(=O)N2C(C(=O)[O-])=C(C[N+]3(C)CCCC3)CS[C@H]12)c1csc(N)n1 [CPE, cefepime] | >4 | >4 | >4 | >4 | >4 | >4 | >4 | >4 | >4 | >4 | >4 | >4 | >4 | >4 | >4 | >4 | >4 | >4 | >4 | >4 | MBEC-Biofilm Elimination, Without compound 2 [2]: >4; MBEC-Biofilm Elimination, Without compound 3 [2]: >4; MBEC-Biofilm Elimination, Without compound 6 [2]: >4; MBEC-Biofilm Elimination, Without compound 7 [2]: >4; MBEC-Biofilm Elimination, Without compound 9 [2]: >4; MBEC-Biofilm Elimination, With 0.01% compound 1 in 5% EtOH/PBS [2]: >4; MBEC-Biofilm Elimination, With 0.01% compound 2 in 5% EtOH/PBS [2]: >4; MBEC-Biofilm Elimination, With 0.01% compound 7 in 5% EtOH/PBS [2]: >4; MBEC-Biofilm Elimination, With 0.05% compound 3 in 5% EtOH/PBS [2]: >4; MBEC-Biofilm Elimination, With 0.05% compound 6 in 5% EtOH/PBS [2]: >4 |
| O=C(N[C@H](CO)[C@H](O)c1ccc([N+](=O)[O-])cc1)C(Cl)Cl [C, chloramphenicol] | >4 | >4 | >4 | >4 | >4 | >4 | >4 | >4 | >4 | >4 | >4 | >4 | >4 | >4 | >4 | >4 | >4 | >4 | >4 | >4 | MBEC-Biofilm Inhibition, With 0.1% w/v compound 9 in PBS [1]: >4; MBEC-Biofilm Elimination, Without compound 2 [2]: >4; MBEC-Biofilm Elimination, Without compound 3 [2]: >4; MBEC-Biofilm Elimination, Without compound 6 [2]: >4; MBEC-Biofilm Elimination, Without compound 7 [2]: >4; MBEC-Biofilm Elimination, Without compound 9 [2]: >4; MBEC-Biofilm Elimination, With 0.01% compound 1 in 5% EtOH/PBS [2]: >4; MBEC-Biofilm Elimination, With 0.01% compound 2 in 5% EtOH/PBS [2]: >4; MBEC-Biofilm Elimination, With 0.01% compound 7 in 5% EtOH/PBS [2]: >4; MBEC-Biofilm Elimination, With 0.05% compound 3 in 5% EtOH/PBS [2]: >4; MBEC-Biofilm Elimination, With 0.05% compound 6 in 5% EtOH/PBS [2]: >4; MBEC-Biofilm Elimination, With 0.1% w/v compound 9 in PBS [2]: >4 |
| colistin [CT] | >1 | >1 | >1 | >1 | >1 | >1 | >1 | >1 | >1 | >1 | >1 | >1 | >1 | >1 | >1 | >1 | >1 | >1 | >1 | >1 | MBEC-Biofilm Inhibition, With 0.1% w/v compound 9 in PBS [1]: >1; MBEC-Biofilm Elimination, Without compound 2 [2]: >1; MBEC-Biofilm Elimination, Without compound 3 [2]: >1; MBEC-Biofilm Elimination, Without compound 6 [2]: >1; MBEC-Biofilm Elimination, Without compound 7 [2]: >1; MBEC-Biofilm Elimination, Without compound 9 [2]: >1; MBEC-Biofilm Elimination, With 0.01% compound 1 in 5% EtOH/PBS [2]: 1; MBEC-Biofilm Elimination, With 0.01% compound 2 in 5% EtOH/PBS [2]: 0.5; MBEC-Biofilm Elimination, With 0.01% compound 7 in 5% EtOH/PBS [2]: 1; MBEC-Biofilm Elimination, With 0.05% compound 3 in 5% EtOH/PBS [2]: >1; MBEC-Biofilm Elimination, With 0.05% compound 6 in 5% EtOH/PBS [2]: >1; MBEC-Biofilm Elimination, With 0.1% w/v compound 9 in PBS [2]: >1 |
